Test results from patent US20240158392A1 (Janssen Biotech, Inc., priority 2021, published 2024).

What was measured:
SIK2 [1] = molecular target: T1, SIK2 (Homo sapiens, UniProt Q9H0K1); assay: SIK2 Enzymatic Assay Version 1 (ADP Glo); assay type: biochemical; settings: enzyme 0.6 nM, 160 μM ATP and 140 μM HDAC5tide (each 2× final concentration); 30 minutes pre-incubation, 4 hours; ADPGlo luminescence; read-out: SIK2 ADP Glo IC50 (μM) (Test Example 1)
Procedure: All steps were performed at room temperature. Compounds were pre-plated onto an assay plate using an Echo acoustic dispenser (Labcyte, E550 or E555) at 20 nL per well. Enzyme prepared in Assay Buffer at 0.6 nM (2× final concentration) was added at 2 μL per well using the Multidrop Combi (Thermo Fisher—used for all additions in this assay) to the assay plate, spun for 1 min at 800-850 rpm (Allegra 6KR Beckman Coulter centrifuge), and incubated with compound for 30 minutes.
One column of wells was dedicated to a no-peptide negative control (containing only ATP). ADPGlo Reagent (prepared and aliquoted as per manufacturer instructions) was then added at 2 μL per well, spun and incubated for 40 min. ADPGlo Detection (prepared and aliquoted as per manufacturer instructions) was added at 2 μL per well to the assay plate, which was spun and incubated for at least 30 min. The plate was then read on the Pherastar (BMG Labtech) using a luminescence read. Gain was set by the 0.1 mM concentration of ADP wells in the ADP/ATP standard curve plate generated as per manufacturer instructions.

SIK2 [2] = molecular target: T1, SIK2; assay: SIK2 Enzymatic Assay High Version 2 (High ATP); assay type: biochemical; settings: enzyme 6 nM, 6 mM ATP and 400 μM HDAC5tide (each 2× final concentration); 30 minutes pre-incubation, 2 hours; ADP-Glo Max luminescence; read-out: SIK2 high ATP IC50 (μM) (Test Example 2)
In short: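 At room temperature, enzyme (6 nM, 2× final) was preincubated with compound for 30 min, then 6 mM ATP and 400 μM HDAC5tide (both 2× final) were added for 2 h. ADP formed was measured by ADP-Glo Max (2 h reagent, 1 h detection) using luminescence.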

T1 sequence (Q9H0K1 whole entry, species assumed): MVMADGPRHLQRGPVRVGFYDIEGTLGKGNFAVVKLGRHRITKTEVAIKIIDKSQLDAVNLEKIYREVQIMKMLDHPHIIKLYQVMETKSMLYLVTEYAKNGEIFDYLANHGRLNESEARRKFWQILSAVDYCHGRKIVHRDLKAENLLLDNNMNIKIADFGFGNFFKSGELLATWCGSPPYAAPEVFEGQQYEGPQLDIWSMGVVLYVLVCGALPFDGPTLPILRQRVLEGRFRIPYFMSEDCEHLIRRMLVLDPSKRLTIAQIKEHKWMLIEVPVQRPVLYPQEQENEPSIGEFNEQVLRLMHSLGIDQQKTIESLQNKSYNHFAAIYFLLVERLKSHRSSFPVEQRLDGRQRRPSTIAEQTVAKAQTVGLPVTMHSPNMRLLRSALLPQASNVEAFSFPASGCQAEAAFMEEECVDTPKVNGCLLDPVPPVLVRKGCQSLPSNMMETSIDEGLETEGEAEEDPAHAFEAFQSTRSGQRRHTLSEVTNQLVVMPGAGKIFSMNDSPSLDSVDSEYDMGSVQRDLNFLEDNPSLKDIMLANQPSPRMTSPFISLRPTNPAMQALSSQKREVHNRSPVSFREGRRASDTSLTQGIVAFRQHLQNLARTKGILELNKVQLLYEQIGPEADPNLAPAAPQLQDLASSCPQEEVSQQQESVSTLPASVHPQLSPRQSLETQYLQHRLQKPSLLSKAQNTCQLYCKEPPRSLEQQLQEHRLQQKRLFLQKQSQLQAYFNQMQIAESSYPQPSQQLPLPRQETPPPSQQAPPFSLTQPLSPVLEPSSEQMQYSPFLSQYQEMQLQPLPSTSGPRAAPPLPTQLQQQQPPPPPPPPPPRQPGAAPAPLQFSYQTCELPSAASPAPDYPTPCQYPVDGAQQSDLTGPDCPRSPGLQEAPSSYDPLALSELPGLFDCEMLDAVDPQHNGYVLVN

| SMILES | IC50 (SIK2 [1]) [µM] | IC50 (SIK2 [2]) [µM] |
| --- | --- | --- |
| N#Cc1cc(-c2ccn3nc(NC(=O)C4CC4)cc3c2)c(OCc2ccc(C(F)(F)F)nc2)cn1 [Example 61, N-[5-[2-cyano-5-[[6-(trifluoromethyl)-3-pyridyl]methoxy]-4-pyridyl]pyrazolo[1,5-a]pyridin-2-yl]cyclopropanecarboxamide] | 0.0103 | – |
| COc1ncccc1-c1ccn2nc(NC(=O)C3CC3)cc2c1 [Example 748, N-[5-(2-methoxy-3-pyridyl)pyrazolo[1,5-a]pyridin-2-yl]cyclopropanecarboxamide] | 0.0965 | – |
| CC(C)(O)C1CN(c2cnc(C#N)cc2-c2ccn3nc(NC(=O)C4CC4)cc3c2)C1 [Example 74, N-[5-[2-cyano-5-[3-(1-hydroxy-1-methyl-ethyl)azetidin-1-yl]-4-pyridyl]pyrazolo[1,5-a]pyridin-2-yl]cyclopropanecarboxamide] | 0.00654 | – |
| CN1CCOC[C@@H](Oc2cnc(C#N)cc2-c2ccn3nc(NC(=O)C4CC4)cc3c2)C1 [Example 26, N-[5-[2-cyano-5-[[(6S)-4-methyl-1,4-oxazepan-6-yl]oxy]-4-pyridyl]pyrazolo[1,5-a]pyridin-2-yl]cyclopropanecarboxamide] | 0.0123 | – |
| Cc1cc(-c2ccn3nc(Nc4cc(C)nc(C)n4)cc3c2)c(O[C@H]2CC[C@H](O)CC2)cn1 [Example 198, trans-4-[[4-[2-[(2,6-dimethylpyrimidin-4-yl)amino]pyrazolo[1,5-a]pyridin-5-yl]-6-methyl-3-pyridyl]oxy]cyclohexanol] | – | 0.00877 |
| COc1cc(Nc2cc3cc(-c4cc(C)ncc4O[C@H]4CC[C@H](O)CC4)ccn3n2)cc(OC)c1 [Example 645, (1r,4r)-4-((4-(2-((3,5-dimethoxyphenyl)amino)pyrazolo[1,5-a]pyridin-5-yl)-6-methylpyridin-3-yl)oxy)cyclohexan-1-ol] | – | 0.325 |
| Cc1cc(-c2ccn3nc(Nc4cc(C)nc(C)n4)cc3c2)c(OC[C@H]2COC3(CCCC3)O2)cn1 (single isomer, unassigned) [Example 544, (*S)—N-(2,6-dimethylpyrimidin-4-yl)-5-[5-(6,9-dioxaspiro[4.4]nonan-8-ylmethoxy)-2-methyl-4-pyridyl]pyrazolo[1,5-a]pyridin-2-amine] | – | 0.0147 |

Next, values leading:

| IC50 (SIK2 [1]) [µM] | IC50 (SIK2 [2]) [µM] | SMILES |
| --- | --- | --- |
| 0.0577 | – | CN1CC[C@H](CNc2cnc(C#N)cc2-c2ccn3nc(NC(=O)C4CC4)cc3c2)C1 [Example 71, N-[5-[2-cyano-5-[[(3R)-1-methylpyrrolidin-3-yl]methylamino]-4-pyridyl]pyrazolo[1,5-a]pyridin-2-yl]cyclopropanecarboxamide] |
| 0.00871 | – | CN1CCC[C@H](Oc2cnc(C#N)cc2-c2ccn3nc(NC(=O)C4CC4)cc3c2)C1 [Example 65, N-[5-[2-cyano-5-[[(3S)-1-methyl-3-piperidyl]oxy]-4-pyridyl]pyrazolo[1,5-a]pyridin-2-yl]cyclopropanecarboxamide] |
| 0.0354 | – | CC(C)(C)OC(=O)N1CCC(COc2cnc(C#N)cc2-c2ccn3nc(NC(=O)C4CC4)cc3c2)C1 (stereo in doubt) [Example 35, tert-butyl (3R)-3-[[6-cyano-4-[2-(cyclopropanecarbonylamino)pyrazolo[1,5-a]pyridin-5-yl]-3-pyridyl]oxymethyl]pyrrolidine-1-carboxylate] |
| 0.0096 | – | CC(C)(C)OC(=O)COc1cnc(C#N)cc1-c1ccn2nc(NC(=O)C3CC3)cc2c1 [Example 55, tert-butyl 2-[[6-Cyano-4-[2-(cyclopropanecarbonylamino)pyrazolo[1,5-a]pyridin-5-yl]-3-pyridyl]oxy]acetate] |
| – | 0.00132 | Cc1cc(-c2ccn3nc(Nc4ccc5cc[nH]c5n4)cc3c2)c(OCC(C)(C)C#N)cn1 [Example 307, 2,2-dimethyl-3-[[6-methyl-4-[2-(1H-pyrrolo[2,3-b]pyridin-6-ylamino)pyrazolo[1,5-a]pyridin-5-yl]-3-pyridyl]oxy]propanenitrile] |
| – | 0.0441 | COC(=O)c1ccc(Nc2cc3cc(-c4cc(C)ncc4O[C@H]4CC[C@H](O)CC4)ccn3n2)cc1OC [Example 246, methyl 4-[[5-[5-(4-hydroxycyclohexoxy)-2-methyl-4-pyridyl]pyrazolo[1,5-a]pyridin-2-yl]amino]-2-methoxy-benzoate] |
